What was measured:
Hepatocyte [1] = test: Cellular uptake in Wistar rat hepatocytes at 5 uM after 2 mins; type: ADME, cell-based
Liver [2] = test: Drug uptake in Wistar rat liver at 5 uM after 1 to 30 mins by LC-MS/MS analysis in presence of ibuprofen; type: ADME, tissue-based; conditions: in vivo
Liver [3] = test: Drug uptake in Wistar rat liver assessed as liver uptake index at 0.2 mg/kg, iv in presence of rifampicin; type: ADME, organism-based; set-up: dose 0.2 mg/kg, route intravenous; conditions: in vivo
Hepatocyte [4] = test: Cellular uptake in Wistar rat hepatocytes at 2.5 uM in presence of TEA; type: ADME, cell-based
Liver [5] = test: Drug uptake in Wistar rat liver assessed as liver uptake index at 0.2 mg/kg, iv in presence of cyclosporin A; type: ADME, organism-based; set-up: dose 0.2 mg/kg, route intravenous; conditions: in vivo
[6] = Ratio of drug level in blood to plasma in Wistar rat at 2.5 uM after 5 mins by LC-MS/MS analysis; type: ADME
[7] = biological target: T1, Solute carrier organic anion transporter family member 1B3 (Homo sapiens, UniProt Q9NPD5); test: Cellular uptake in HEK293 cells expressing OATP1B3 (unknown origin) assessed as inhibition of telmisartan-mediated drug transport; type: ADME, cell-based
T1 sequence (Q9NPD5 whole entry): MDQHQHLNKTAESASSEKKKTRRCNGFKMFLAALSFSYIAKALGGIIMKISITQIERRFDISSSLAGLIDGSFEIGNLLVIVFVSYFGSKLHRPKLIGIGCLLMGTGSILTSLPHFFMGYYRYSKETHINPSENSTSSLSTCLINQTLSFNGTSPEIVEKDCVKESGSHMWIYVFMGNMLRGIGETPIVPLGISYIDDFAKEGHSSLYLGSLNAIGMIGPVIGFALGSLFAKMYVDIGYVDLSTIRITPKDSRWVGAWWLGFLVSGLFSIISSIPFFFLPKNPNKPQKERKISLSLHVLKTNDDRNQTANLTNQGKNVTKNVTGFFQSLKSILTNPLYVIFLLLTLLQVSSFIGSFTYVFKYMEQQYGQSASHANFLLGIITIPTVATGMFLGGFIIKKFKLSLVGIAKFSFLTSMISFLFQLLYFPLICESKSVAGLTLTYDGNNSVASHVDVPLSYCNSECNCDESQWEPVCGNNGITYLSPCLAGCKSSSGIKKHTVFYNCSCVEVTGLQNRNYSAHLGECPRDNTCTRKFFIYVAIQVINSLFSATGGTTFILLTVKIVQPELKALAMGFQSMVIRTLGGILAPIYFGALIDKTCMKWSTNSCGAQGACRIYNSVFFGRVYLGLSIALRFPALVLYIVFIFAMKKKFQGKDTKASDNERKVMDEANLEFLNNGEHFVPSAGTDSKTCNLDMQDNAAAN

[8] = Plasma clearance in Wistar rat; type: ADME, organism-based
Hepatocyte [9] = test: Cellular uptake in Wistar rat hepatocytes at 2.5 uM in presence of glycyrrhizic acid; type: ADME, cell-based
Liver [10] = test: Drug uptake in Wistar rat liver at 5 uM after 1 to 30 mins by LC-MS/MS analysis in presence of TEA; type: ADME, tissue-based; conditions: in vivo
Liver [11] = test: Drug uptake in Wistar rat liver at 5 uM after 1 to 30 mins by LC-MS/MS analysis in presence of glycyrrhizic acid; type: ADME, tissue-based; conditions: in vivo
OATP1B3 = biological target: T2, OATP1B3 (Homo sapiens, UniProt Q9NPD5); test: (§1) Activity at OATP1B3 (unknown origin) expressed in HEK293 cells assessed as compound transport; type: ADME, cell-based; conditions: HEK293 cells expressing OATP1B3
T2 sequence (Q9NPD5 whole entry): T1 sequence (Q9NPD5 whole entry)

[12] = biological target: T1, Solute carrier organic anion transporter family member 1B3; test: as §1; type: ADME, cell-based; conditions: hek293
Hepatocyte [13] = test: Cellular uptake in Wistar rat hepatocytes at 2.5 uM in presence of ibuprofen; type: ADME, cell-based
[14] = Drug uptake in MDCK2 cells at 2.5 uM after 30 to 180 mins by LC-MS/MS analysis; type: ADME, cell-based, Canis lupus familiaris; conditions: dog, mdck-ii
Hepatocyte [15] = test: Cellular uptake in Wistar rat hepatocytes at 2.5 uM in presence of K+; type: ADME, cell-based
[16] = biological target: T1, Solute carrier organic anion transporter family member 1B3; test: Cellular uptake in HEK293 cells expressing OATP1B3 (unknown origin) assessed as inhibition of cyclosporin A-mediated drug transport; type: ADME, cell-based
[17] = Cellular uptake in Wistar rat hepatocytes at 0.2 to 2.5 uM; type: ADME, cell-based, Hepatocyte
Liver [18] = test: Drug uptake in Wistar rat liver assessed as liver uptake index at 0.2 mg/kg, iv; type: ADME, organism-based; set-up: dose 0.2 mg/kg, route intravenous; conditions: in vivo
Liver [19] = test: Drug uptake in Wistar rat liver at 5 uM after 1 to 30 mins by LC-MS/MS analysis in presence of digoxin; type: ADME, tissue-based; conditions: in vivo
[20] = Drug uptake in Wistar rat liver assessed as hepatic extraction ratio at 2.5 uM after 1 to 60 mins; type: ADME, tissue-based; conditions: read-out: ERH
[21] = Drug uptake in Wistar rat liver assessed as hepatic extraction ratio at 2.5 uM after 1 to 60 mins in presence of rifampicin; type: ADME, tissue-based; conditions: with rifampicin, read-out: ERH
Liver [22] = test: Drug uptake in Wistar rat liver at 5 uM after 1 to 30 mins by LC-MS/MS analysis in presence of rifampicin; type: ADME, tissue-based; conditions: in vivo
Hepatocyte [23] = test: Cellular uptake in Wistar rat hepatocytes at 2.5 uM in presence of digoxin; type: ADME, cell-based
Hepatocyte [24] = test: Cellular uptake in Wistar rat hepatocytes at 2.5 uM in presence of PAH; type: ADME, cell-based
Hepatocyte [25] = test: Cellular uptake in Wistar rat hepatocytes at 2.5 uM after 2 mins; type: ADME, cell-based
[26] = biological target: T1, Solute carrier organic anion transporter family member 1B3; test: Cellular uptake in HEK293 cells expressing OATP1B3 (unknown origin) assessed as inhibition of rifampicin-mediated drug transport; type: ADME, cell-based
[27] = Drug uptake in MDCK2 cells expressing OATP1B1 (unknown origin) at 2.5 uM after 30 to 180 mins by LC-MS/MS analysis; type: ADME, cell-based, Canis lupus familiaris; conditions: dog, mdck-ii
Hepatocyte [28] = test: Cellular uptake in Wistar rat hepatocytes at 2.5 uM in presence of cyclosporin A; type: ADME, cell-based
[29] = Drug uptake in Wistar rat liver assessed as hepatic extraction ratio at 2.5 uM after 1 to 60 mins in presence of cyclosporin A; type: ADME, tissue-based; conditions: with cyclosporin A, read-out: ERH
Liver [30] = test: Drug uptake in Wistar rat liver at 5 uM after 15 mins by LC-MS/MS analysis; type: ADME, tissue-based; conditions: in vivo, 0.25 h
[31] = biological target: T1, Solute carrier organic anion transporter family member 1B3; test: Cellular uptake in HEK293 cells expressing OATP1B3 (unknown origin) assessed as inhibition of (-)-epigallocatechin gallate-mediated drug transport; type: ADME, cell-based
[32] = Fraction unbound in Wistar rat blood; type: ADME, tissue-based
HEK293 = test: Cellular uptake in HEK293 cells at 2.5 uM after 1 min; type: ADME, cell-based; conditions: human, hek293, 1 min
[33] = Intrinsic clearance in human; type: ADME, organism-based; conditions: in vivo
Liver [34] = test: Drug uptake in Wistar rat liver at 5 uM after 1 to 30 mins by LC-MS/MS analysis in presence of PAH; type: ADME, tissue-based; conditions: in vivo
[35] = Drug uptake in MDCK2 cells expressing OATP1B1/MRP2 (unknown origin) at 2.5 uM after 30 to 180 mins by LC-MS/MS analysis; type: ADME, cell-based, Canis lupus familiaris; conditions: dog, mdck-ii
[36] = Fraction unbound in Wistar rat plasma at 2.5 uM by LC-MS/MS analysis; type: ADME, cell-free
Hepatocyte [37] = test: Cellular uptake in Wistar rat hepatocytes at 2.5 uM in presence of rifampicin; type: ADME, cell-based
Liver [38] = test: Drug uptake in Wistar rat liver at 2.5 uM after 30 mins; type: ADME, tissue-based; conditions: in vivo, 0.5 h
Hepatocyte [39] = test: Cellular uptake in Wistar rat hepatocytes at 2.5 uM in presence of Na+; type: ADME, cell-based
[40] = Clearance in human hepatocytes assessed per 10^6 cells; type: ADME, cell-based, Hepatocyte; conditions: read-out: CLH
Liver [41] = test: Drug uptake in Wistar rat liver at 5 uM after 1 to 30 mins by LC-MS/MS analysis in presence of cyclosporin A; type: ADME, tissue-based; conditions: in vivo
Hepatocyte [42] = test: Cellular uptake in Wistar rat hepatocytes assessed as rate of drug transport per 10^6 cells at 0.2 to 2.5 uM; type: ADME, cell-based
OATP1B1 = test: Efflux ratio of permeability from basolateral to apical side to apical to basolateral side in MDCK2 cells expressing OATP1B1 (unknown origin) at 1 uM after 30 to 180 mins by LC-MS/MS analysis; type: ADME, cell-based, Canis lupus familiaris, MDCK-II; conditions: dog, MDCK
OATP1B1/MRP2 = test: Efflux ratio of permeability from basolateral to apical side to apical to basolateral side in MDCK2 cells expressing OATP1B1/MRP2 (unknown origin) at 1 uM after 30 to 180 mins by LC-MS/MS analysis; type: ADME, cell-based, Canis lupus familiaris, MDCK-II; conditions: dog

C[C@H]1O[C@@H](O[C@H]2[C@@H](O)C[C@H](O[C@H]3[C@@H](O)C[C@H](O[C@H]4CC[C@@]5(C)[C@H](CC[C@@H]6[C@@H]5C[C@@H](O)[C@]5(C)[C@@H](C7=CC(=O)OC7)CC[C@]65O)C4)O[C@@H]3C)O[C@@H]2C)C[C@H](O)[C@@H]1O [DIGOXIN]
Drug uptake (Hepatocyte [1]): Active

C[C@@H]1CC[C@@]2(OC1)O[C@H]1C[C@H]3[C@@H]4CC=C5C[C@@H](O[C@@H]6O[C@H](CO)[C@@H](O[C@@H]7O[C@@H](C)[C@H](O)[C@@H](O)[C@H]7O)[C@H](O)[C@H]6O[C@@H]6O[C@@H](C)[C@H](O)[C@@H](O)[C@H]6O)CC[C@]5(C)[C@H]4CC[C@]3(C)[C@H]1[C@@H]2C [DIOSCIN]
Drug uptake (Liver [2]): Not Active | LUI (Liver [3]): 5.5% | Drug uptake (Hepatocyte [4]): Active | LUI (Liver [5]): 6.9% | blood plasma ratio at 5 min, 2.5 µM [6]: 0.771 | Ki [7]: 1030 nM | clearance [8]: 3.86 mL/min/kg | Drug uptake (Hepatocyte [9]): Not Active | Drug uptake (Liver [10]): Active | Drug uptake (Liver [11]): Not Active | Km (OATP1B3): 2080 nM | Vmax [12]: 730 pmol/min/mg | Drug uptake (Hepatocyte [13]): Not Active | Drug uptake [14]: Active | Drug uptake (Hepatocyte [15]): Active | Ki [16]: 1430 nM | Km at up to 2.5 µM [17]: 3.75 µM | LUI (Liver [18]): 11.9% | Drug uptake (Liver [19]): Not Active | hepatic extraction ratio at 2.5 µM [20]: 0.15 | hepatic extraction ratio at 2.5 µM [21]: 0.082 | Drug uptake (Liver [22]): Not Active | Drug uptake (Hepatocyte [23]): Not Active | Drug uptake (Hepatocyte [24]): Active | Drug uptake (Hepatocyte [25]): Active | Ki [26]: 4.55 µM | Drug uptake [27]: Active | Drug uptake (Hepatocyte [28]): Not Active | hepatic extraction ratio at 2.5 µM [29]: 0.074 | Drug uptake (Liver [30]): Active | Ki [31]: 8.29 µM | fraction unbound [32]: 0.079 | Drug uptake (HEK293): Active | CLint scaled [33]: 168 mL/min/kg | Drug uptake (Liver [34]): Active | Drug uptake [35]: Active | fraction unbound at 2.5 µM [36]: 0.061 | Drug uptake (Hepatocyte [37]): Not Active | Drug uptake (Liver [38]): Active | Drug uptake (Hepatocyte [39]): Active | hepatocyte CLint [40]: 35 µL/min/1e6 cells | Drug uptake (Liver [41]): Not Active | Vmax (Hepatocyte [42]): 588 pmol/min

C[C@]12CC[C@@H]3c4ccc(OS(=O)(=O)O)cc4CC[C@H]3[C@@H]1CCC2=O [ESTRONE SULFURIC ACID]
efflux ratio at 1 µM (OATP1B1): 2.8 | efflux ratio at 1 µM (OATP1B1/MRP2): 4.2
